What all share (assay type): in vivo
One data set deals with weeds. As to the kind of experiment: Activity test of the compositions, soil sealing treatment. Particulars: read-out: Control effect (%) of B applied alone (B). Put shortly: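 Pre-emergence soil spray at 450 kg/ha, 0.3 MPa, applied 72 h after sowing pre-germinated seeds, 20 seeds per pot, 4 pots, 4 repeats; actives in acetone diluted with 0.10% Tween-80. Greenhouse, 20 to 30° C; surviving weed fresh weight measured 21 days after treatment.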

Another data set has as its system corn. As to the kind of experiment: Pre-emergence stage, crop damage. Particulars: 24 g a.i./mu, 2 weeks. The source says: (§1) The activity level criteria for plant damage (i.e., growth control rate) are as follows:
(§2) The above growth control rates are fresh weight control rates.
(§3) Monocotyledonous and dicotyledonous weed seeds (Descurainia sophia, Capsella bursa-pastoris, Abutilon theophrasti, Galium aparine, Stellaria media, Lithospermum arvense, Rorippa indica, Alopecurus aequalis, Alopecurus japonicus, Eleusine indica, Beckmannia syzigachne, Sclerochloa dura, Phleum paniculatum, Veronica didyma, Bromus japonicus, Aegilops tauschii, Phalaris arundinacea, Amaranthus retroflexus, Chenopodiaceae, Commelina communis, Sonchus arvensis, Convolvulus arvensis, Cirsium setosum, Solanumnigrum, Acalypha australis, Digitaria sanguinalis, Echinochloa crusgalli, Setaria viridis, Setaria glauca, Leptochloa chinensis, Monochoria vaginalis, Sagittaria trifolia, Scirpus juncoides, Cyperus rotundus, Cyperus iria, Cyperus difformis, Fimbristylis, Portulaca oleracea, Xanthium sibiricum, Pharbitis nil, Conyza Canadensis, etc.) and major crop seeds (wheat, corn, rice, soybean, cotton, oilseed rape, millet, sorghum, potato, sesame, ricinus, etc.) were placed in plastic pots filled with soil, then covered with 0.5-2 cm of soil, allowed to grow in a good greenhouse environment. The test plants were treated on the day of sowing. The tested compounds of the present invention were respectively dissolved in acetone, then added with Tween 80, diluted with a certain amount of water to obtain a solution of a certain concentration, and sprayed by a spray tower onto the plants. After the application, the plants were cultured for 2 weeks in the greenhouse, and then the experimental results of the weeding were recorded. The doses of the used compounds were 3, 6, 12, 24, 48 g ai./mu (1 mu=1/15 ha), and the averages were obtained from three replicates.

The subject of the next data set is cotton. The data set is described as follows: Pre-emergence stage, crop damage. Particulars: 2 weeks.
Text: as §1, §2, §3

In data set [1] the test system is wheat. As to the kind of experiment: Pre-emergence stage, crop damage. Particulars: 2 weeks.
Text: as §1, §2, §3

The next data set concerns peanut. As to the kind of experiment: Pre-emergence stage, crop damage. To be noted: 48 g a.i./mu, 2 weeks.
Text: as §1, §2, §3

For a further data set, the system named is soy bean. As to the kind of experiment: Pre-emergence stage, crop damage. To be noted: 2 weeks.
Text: as §1, §2, §3

In data set [2] the test system is rice. The data set is described as follows: Pre-emergence stage, crop damage. Particulars: 2 weeks.
Text: as §1, §2, §3

Data set [3] has as its system wheat. The data set is described as follows: Post-emergence stage, crop damage. To be noted: 720 g a.i./ha, 3 weeks after application.
Text: as §1, §2
(§4) Monocotyledonous and dicotyledonous weed seeds (Descurainia sophia, Capsella bursa-pastoris, Abutilon theophrasti, Galium aparine, Stellaria media, Lithospermum arvense, Rorippa indica, Alopecurus aequalis, Alopecurus japonicus, Eleusine indica, Beckmannia syzigachne, Sclerochloa dura, Phleum paniculatum, Veronica didyma, Bromus japonicus, Aegilops tauschii, Phalaris arundinacea, Amaranthus retroflexus, Chenopodiaceae, Commelina communis, Sonchus arvensis, Convolvulus arvensis, Cirsium setosum, Solanumnigrum, Acalypha australis, Digitaria sanguinalis, Echinochloa crusgalli, Setaria viridis, Setaria glauca, Leptochloa chinensis, Monochoria vaginalis, Sagittaria trifolia, Scirpus juncoides, Cyperus rotundus, Cyperus iria, Cyperus difformis, Fimbristylis, Portulaca oleracea, Xanthium sibiricum, Pharbitis nil, Conyza Canadensis, etc.) and major crop seeds (wheat, corn, rice, soybean, cotton, oilseed rape, millet, sorghum, potato, sesame, ricinus, etc.) were placed in plastic pots filled with soil, then covered with 0.5-2 cm of soil, allowed to grow in a good greenhouse environment. Two weeks after sowing, the test plants were treated in the 2-3 leaf stage. The tested compounds of the present invention were respectively dissolved in acetone, then added with Tween 80 and 1.5 liter/ha of emulsifiable concentrate of methyl oleate as synergist, diluted with a certain amount of water to obtain a solution of a certain concentration, and sprayed by a spray tower onto the plants. After the application, the plants were cultured for 3 weeks in the greenhouse, and then the experimental results of the weeding were recorded. The doses of the used compounds were 45, 90, 180, 360, 720 g a.i./ha, and the averages were obtained from three replicates.

Data set [4] relates to rice. The data set is described as follows: Post-emergence stage, crop damage. To be noted: 720 g a.i./ha, 3 weeks after application.
Text: as §1, §2, §4

Data set [5] deals with Leptochloa chinensis. As to the kind of experiment: Weeding effect in post-emergence stage. To be noted: 720 g a.i./ha, 3 weeks after application.
Text: as §1, §2, §4

The next data set relates to Digitaria sanguinalis. The data set is described as follows: Weeding effect in post-emergence stage. Particulars: 720 g a.i./ha, 3 weeks after application.
Text: as §1, §2, §4

The next data set deals with Abutilon theophrasti. The data set is described as follows: Weeding effect in post-emergence stage. Particulars: 720 g a.i./ha, 3 weeks after application.
Text: as §1, §2, §4

Another data set has as its system Alopecurus japonicus. As to the kind of experiment: Weeding effect in post-emergence stage. To be noted: 720 g a.i./ha, 3 weeks after application.
Text: as §1, §2, §4

For another data set, the system named is Lolium perenne. As to the kind of experiment: Weeding effect in pre-emergence stage. Particulars: 2 weeks.
Text: as §1, §2, §3

A further data set relates to Echinochloa crusgalli. The data set is described as follows: Weeding effect in pre-emergence stage. Particulars: 2 weeks.
Text: as §1, §2, §3

Data set [6] relates to Leptochloa chinensis. The data set is described as follows: Weeding effect in pre-emergence stage. To be noted: 2 weeks.
Text: as §1, §2, §3

The next data set has as its system Descurainia sophia. As to the kind of experiment: Weeding effect in pre-emergence stage. Particulars: 2 weeks.
Text: as §1, §2, §3

The test system of another data set is Veronica didyma. As to the kind of experiment: Weeding effect in pre-emergence stage. Particulars: 2 weeks.
Text: as §1, §2, §3

Data set [7] has as its system Echinochloa crusgalli, Scirpus juncoides, Bidens tripartita L., Sagittaria trifolia. As to the kind of experiment: Tests on resistance of the collected weeds to pyrazosulfuron-ethyl. Particulars: regular doses; weed seeds collected from Heilongjiang Province of China. The source says:
Note: The seeds of Echinochloa crusgalli, Scirpus juncoides and Bidens tripartita L., and Sagittaria trifolia were collected from Heilongjiang Province of China.

Take `CC1(C)CON(Cc2ccc(Cl)cc2Cl)C1=O` [Control compound A, bixlozone]: the pest or weed control at 30 g/ha in the data set on weeds (Echinochloa crus-galli, 504 h, Echinochloa crusgalli, soil treatment (S), B at 2 g a.i./mu, 21 days) is 41.3%. The pest or weed control at 60 g/ha in the data set with weeds (Echinochloa crus-galli, 504 h, Echinochloa crusgalli, soil treatment (S), B at 4 g a.i./mu, 21 days) amounted to 50.3%. The “plant damage level (growth control rate) on crop, pre-emergence stage” value in the data set on corn was 2 (Level 2: growth control rate is greater than or equal to 15% and less than 30%); in the data set with cotton (12 g a.i./mu) it was 1 (Level 1: growth control rate is greater than 0% and less than 15%); with cotton (24 g a.i./mu) it was 2 (Level 2: growth control rate is greater than or equal to 15% and less than 30%); with wheat [1] (6 g a.i./mu), 1 (Level 1: growth control rate is greater than 0% and less than 15%); in the data set with wheat [1] (12 g a.i./mu), 1 (Level 1: growth control rate is greater than 0% and less than 15%); with wheat [1] (24 g a.i./mu) it was 2 (Level 2: growth control rate is greater than or equal to 15% and less than 30%). Besides, the “plant damage level (growth control rate) on crop, pre-emergence stage” value with peanut was 1 (Level 1: growth control rate is greater than 0% and less than 15%); with soy bean (24 g a.i./mu) it was 1 (Level 1: growth control rate is greater than 0% and less than 15%); in the data set with soy bean (48 g a.i./mu) it was 2 (Level 2: growth control rate is greater than or equal to 15% and less than 30%); in the data set on rice [2] (6 g a.i./mu), 1 (Level 1: growth control rate is greater than 0% and less than 15%); in the data set on rice [2] (12 g a.i./mu), 2 (Level 2: growth control rate is greater than or equal to 15% and less than 30%); with rice [2] (24 g a.i./mu) it was 4 (Level 4: growth control rate is greater than or equal to 40% and less than 50%). Moreover, the “plant damage level (growth control rate) on crop, post-emergence stage” value was 3 (Level 3: growth control rate is greater than or equal to 40% and less than 60%) in the data set on wheat [3]; 2 (Level 2: growth control rate is greater than or equal to 20% and less than 40%) with rice [4]. For the same compound, the “weeding effect in post-emergence stage, activity level (growth control rate)” value is 2 (Level 2: growth control rate is greater than or equal to 20% and less than 40%) in the data set on Leptochloa chinensis [5]; 3 (Level 3: growth control rate is greater than or equal to 40% and less than 60%) in the data set on Digitaria sanguinalis; 4 (Level 4: growth control rate is greater than or equal to 60% and less than 85%) in the data set with Abutilon theophrasti; 3 (Level 3: growth control rate is greater than or equal to 40% and less than 60%) in the data set with Alopecurus japonicus. In addition, the “weeding effect in pre-emergence stage, activity level (growth control rate)” value (from here on “weeding effect in pre-emergence stage”) was 2 (Level 2: growth control rate is greater than or equal to 15% and less than 30%) in the data set with Lolium perenne (6 g a.i./mu); 9 with Lolium perenne (24 g a.i./mu); 7 (Level 7: growth control rate is greater than or equal to 70% and less than 80%) in the data set on Echinochloa crusgalli (3 g a.i./mu); 9 in the data set with Echinochloa crusgalli (6 g a.i./mu); 9 in the data set on Echinochloa crusgalli (12 g a.i./mu); 9 in the data set with Echinochloa crusgalli (24 g a.i./mu). Moreover, the “weeding effect in pre-emergence stage” value with Leptochloa chinensis [6] (3 g a.i./mu) is 6 (Level 6: growth control rate is greater than or equal to 60% and less than 70%); in the data set with Leptochloa chinensis [6] (6 g a.i./mu), 9; with Leptochloa chinensis [6] (12 g a.i./mu), 9; in the data set on Leptochloa chinensis [6] (24 g a.i./mu) it was 9; with Descurainia sophia (3 g a.i./mu), 4 (Level 4: growth control rate is greater than or equal to 40% and less than 50%); in the data set on Descurainia sophia (6 g a.i./mu), 4 (Level 4: growth control rate is greater than or equal to 40% and less than 50%). Moreover, the “weeding effect in pre-emergence stage” value in the data set with Descurainia sophia (12 g a.i./mu) is 9; with Descurainia sophia (24 g a.i./mu) it was 9; in the data set on Veronica didyma (6 g a.i./mu), 8 (Level 8: growth control rate is greater than or equal to 80% and less than 100%); in the data set on Veronica didyma (12 g a.i./mu), 9; in the data set on Veronica didyma (24 g a.i./mu) it was 9.
Regarding `CCOC(=O)c1cnn(C)c1S(=O)(=O)NC(=O)Nc1nc(OC)cc(OC)n1` [pyrazosulfuron-ethyl, reference compound], the pest or weed control at 3.75 g/ha with weeds (Cyperus difformis, soil (S), B 0.25 g a.i./mu) was found to be 44.8%. Besides, the pest or weed control at 7.5 g/ha in the data set with weeds (Cyperus difformis, soil (S), B 0.5 g a.i./mu) came to 59.7%. The “response of the collected weeds to pyrazosulfuron-ethyl” value in data set [7] is recorded as “resistant”.
